The text below walks through data of patent publication US11180484B2, “Pyrazole derivatives as plasma kallikrein inhibitors” (KALVISTA PHARMACEUTICALS LIMITED, priority 2016, dated 2021).

The IC50 is the concentration that inhibits the measured activity by half. As a reminder, the fraction unbound is the share of the substance not bound to proteins or other matrix. Read a high fraction unbound as much free substance. In general, Ki refers to a dissociation constant, usually derived from enzyme kinetics or from competition with a known ligand. A word on the Cmax: it is the maximum level reached in the sampled fluid or tissue. The Tmax is the time at which the peak concentration occurs. One may read the Papp as the rate of passage across a membrane or cell layer, normalised by area and donor concentration. As usually defined, the inhibition is the share of the control response that was lost under treatment. By solubility is commonly meant how much of the substance goes into solution per volume.

Values after ≈ are worked out from the molar mass of the structure shown. Read-outs that look alike come from different tables or passages of the source. Bounds are passed on as bounds.

For one data set, the target named is Human KLK1 (Homo sapiens (Human), UniProt P06870). The data set is described as follows: Determination of the IC50 for KLK1. Format: biochemical. The note with it: 25° C., substrate H-DVal-Leu-Arg-AFC. How it is done: Human KLK1 (Callbiochem) was incubated at 25° C. with the fluorogenic substrate H-DVal-Leu-Arg-AFC and various concentrations of the test compound. Residual enzyme activity (initial rate of reaction) was determined by measuring the change in […] at 410 nm and the IC50 value for the test compound was determined.
Sequence of Human KLK1 (P06870 25-262): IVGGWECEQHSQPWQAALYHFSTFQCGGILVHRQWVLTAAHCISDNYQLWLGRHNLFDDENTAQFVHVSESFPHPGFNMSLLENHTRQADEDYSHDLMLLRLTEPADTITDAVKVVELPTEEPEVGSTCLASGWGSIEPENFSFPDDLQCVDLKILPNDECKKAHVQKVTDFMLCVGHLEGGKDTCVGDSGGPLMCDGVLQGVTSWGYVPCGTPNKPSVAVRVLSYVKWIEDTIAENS

Data set [1] is described as follows: Plasma protein binding (PPB), rapid equilibrium dialysis, rat plasma. Conditions: 5 μM test compound, dialysis 5 hrs at 37° C. Format: in vitro ADME. The method, then: The fraction unbound in plasma was determined using ThermoScientific™ Pierce™ Rapid Equilibrium Dialysis Technology (Single-Use plate with inserts, 8K MWCO). 5 μM test compound was spiked into human or rat plasma (300 μL) and dialysed against 146.5 mM phosphate buffer (500 μL) for 5 hrs at 37° C., shaking at 1200 rpm. Reference samples from the non-dialysed plasma were taken before the incubation to enable an assessment of recovery. Test compound concentrations were determined in plasma and buffer compartments by LCMS against a calibration curve. The fraction unbound in plasma was determined using standard methodology (Waters N J et al (2008) J Pharm Sci 97(10); 4586-95). Results are presented as percent plasma protein bound (% PPB).
On the technique in general: In equilibrium dialysis free small molecules cross a membrane that holds back macromolecules.

A short description of data set [2]: Intrinsic clearance in rat liver microsomes. Format: in vitro ADME. The note with it: rat liver microsomes 0.5 mg/mL, 5 μM test compound, 37° C.; read-out: rat liver microsome (Clint μL/min/mg protein). How it is done: (§1) Rat or human liver microsomes (0.5 mg/mL; Corning) were incubated with 5 μM test compound at 37° C. on a shaking platform (150 rpm). Samples were taken at 0, 6, 12, 18, 24 and 60 min and test compound concentrations were determined by LCMS against a calibration curve.
A general note: Liver microsomes are a subcellular fraction often used to study metabolism.

The next data set concerns the target Human Factor XIIa (Homo sapiens (Human), UniProt P00748). The data set is described as follows: Factor XIIa inhibitory activity in vitro. Type of data set: biochemical. The note with it: 25° C., substrate H-DPro-Phe-Arg-AFC; read-out: IC50 (human FXIIa). The method, then: Human Factor XIIa (Enzyme Research Laboratories) was incubated at 25° C. with the fluorogenic substrate H-DPro-Phe-Arg-AFC and various concentrations of the test compound. Residual enzyme activity (initial rate of reaction) was determined by measuring the change in […] at 410 nm and the IC50 value for the test compound was determined.

The nature of data set [3]: Predicted plasma clearance (Clp), well-stirred model, human. Type of data set: in vitro ADME. The note with it: percentage of hepatic blood flow. The method, then:
(§2) The predicted plasma clearance (Clp) is calculated using the well-stirred model (Rowland M, Benet L Z, and Graham G G. Clearance concepts in pharmacokinetics. J Pharmacokinet Biopharm. (1973) 1:123-136.), one of several models that can be used to extrapolate the in vitro data. The model assumes instantaneous and complete mixing of drug within the liver and is a function of intrinsic clearance, hepatic blood flow and free fraction of drug in the blood. The predicted plasma clearance in mL/min/kg is presented as a percentage of hepatic blood flow (LBF).

Data set [4] concerns the target T1, Human plasma kallikrein (Homo sapiens (Human), UniProt P03952). The data set is described as follows: Determination of the Ki for plasma kallikrein (mixed-model inhibition). Format: biochemical. The note with it: for Ki: human plasma kallikrein, mixed-model inhibition equation; for Alpha: parameter of the mixed-model equation indicating mechanism of inhibition. The method, then:
Plasma kallikrein inhibitory activity in vitro was determined using standard published methods (e.g. Johansen et al., Int. J. Tiss. Reac. 1986, 8, 185; Shori et al., Biochem. Pharmacol., 1992, 43, 1209; Sturzebecher et al., Biol. Chem. Hoppe-Seyler, 1992, 373, 1025). […]. Residual enzyme activity (initial rate of reaction) was determined by measuring the change in fluorescence at 410 nm. The Ki value for the test compound was determined using the mixed-model inhibition equation (based on Equation 3.2 in: RA Copeland, Evaluation of Enzyme Inhibitors in Drug Discovery, Wiley 2005) in GraphPad Prism. The mixed model equation includes competitive, uncompetitive and noncompetitive inhibition as special cases and the parameter of Alpha to indicate mechanism of inhibition.

Data set [5] can be described thus: Pharmacokinetics following a single oral dose in male Sprague-Dawley rats. Type of data set: in vivo. The note with it: rat, single po dose (nominal 10 mg/kg; actual dose per row in column Dose po), 10% DMSO/10% cremophor/80% SWFI, plasma. How it is done: Pharmacokinetic studies of the compounds in Table 13 were performed to assess the pharmacokinetics following a single oral dose in male Sprague-Dawley rats. Two rats were given a single po dose of 5 mL/kg of a nominal 2 mg/mL (10 mg/kg) composition of test compound in vehicle. Following dosing, blood samples were collected over a period of 24 hours. Sample times were 5, 15 and 30 minutes then 1, 2, 4, 6, 8 and 12 hours. Following collection, blood samples were centrifuged and the plasma fraction analysed for concentration of test compound by LCMS.

A short description of data set [6]: Intrinsic clearance in human liver microsomes. The note with it: human liver microsomes 0.5 mg/mL, 5 μM test compound, 37° C.; read-out: Human liver microsome (Clint μL/min/mg protein). Type of data set: in vitro ADME. The method, then:
as §1

Data set [7] in a line: In vitro permeability, Caco-2 model for oral absorption. The note with it: human, apical to basolateral, 50 μM test compound, 37° C. Type of data set: in vitro ADME. The gist of the method:
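Caco-2 monolayers grown on collagen inserts for 3 days, with 50 μM compound added apically and incubated 1 hour at 37° C with shaking. Apical-to-basolateral transport measured by LCMS in both compartments. Monolayer integrity checked by TEER before and after, and by Lucifer Yellow flux.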

The target in data set [8] is T1, Human plasma kallikrein. The experiment in a line: Determination of the IC50 for plasma kallikrein. Type of data set: biochemical. Conditions: 25° C., substrate H-DPro-Phe-Arg-AFC; read-out: IC50 (human PKal). The method, then: Human plasma kallikrein (Protogen) was incubated at 25° C. with the fluorogenic substrate H-DPro-Phe-Arg-AFC and various concentrations of the test compound. Residual enzyme activity (initial rate of reaction) was determined by measuring the change in […] at 410 nm and the IC50 value for the test compound was determined.

A short description of data set [9]: Predicted plasma clearance (Clp), well-stirred model, rat. Format: in vitro ADME. The note with it: percentage of hepatic blood flow. How it is done:
as §2

The target in the next data set is Human FXIa (Homo sapiens (Human), UniProt P03951). The experiment in a line: Determination of the % inhibition / IC50 for FXIa. Conditions: for inhibition at 40 µM: read-out: % Inhibition @ 40 μM (human FXIa); for IC50: 25° C., substrate Z-Gly-Pro-Arg-AFC. Type of data set: biochemical. How it is done: FXIa inhibitory activity in vitro was determined using standard published methods (see e.g. Johansen et al., Int. J. Tiss. Reac. 1986, 8, 185; Shori et al., Biochem. Pharmacol., 1992, 43, 1209; Sturzebecher et al., Biol. Chem. Hoppe-Seyler, 1992, 373, 1025). […]
Sequence of Human FXIa (P03951 388-625): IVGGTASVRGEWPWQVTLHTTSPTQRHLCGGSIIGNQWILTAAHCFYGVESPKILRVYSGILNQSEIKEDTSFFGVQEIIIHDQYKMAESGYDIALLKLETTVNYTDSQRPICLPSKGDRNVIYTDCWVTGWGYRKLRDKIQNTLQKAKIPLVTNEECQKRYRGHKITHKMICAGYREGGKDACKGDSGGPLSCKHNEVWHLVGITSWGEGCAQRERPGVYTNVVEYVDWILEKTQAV
Sequence of Human FXIa (P03951 19-387): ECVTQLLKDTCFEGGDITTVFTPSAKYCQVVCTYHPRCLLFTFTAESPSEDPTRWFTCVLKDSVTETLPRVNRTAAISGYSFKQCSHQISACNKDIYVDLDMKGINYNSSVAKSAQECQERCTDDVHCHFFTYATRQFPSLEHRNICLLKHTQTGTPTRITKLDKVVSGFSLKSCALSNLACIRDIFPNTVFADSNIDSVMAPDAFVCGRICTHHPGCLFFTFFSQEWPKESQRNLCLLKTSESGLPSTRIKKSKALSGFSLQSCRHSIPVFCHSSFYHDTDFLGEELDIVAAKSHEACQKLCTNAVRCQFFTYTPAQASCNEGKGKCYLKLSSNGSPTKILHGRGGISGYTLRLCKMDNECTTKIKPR

A short description of data set [10]: Plasma protein binding (PPB), rapid equilibrium dialysis, human plasma. Type of data set: in vitro ADME. Conditions: 5 μM test compound, dialysis 5 hrs at 37° C. The method, then:
The fraction unbound in plasma was determined using ThermoScientific™ Pierce™ Rapid Equilibrium Dialysis Technology (Single-Use plate with inserts, 8K MWCO). […] Reference samples from the non-dialysed plasma were taken before the incubation to enable an assessment of recovery. Test compound concentrations were determined in plasma and buffer compartments by LCMS against a calibration curve. […] Results are presented as percent plasma protein bound (% PPB).

The nature of data set [11]: Solubility in water and 0.1N HCl (aq). Format: physicochemical. Conditions: thermodynamic from solid, incubated at 1 mg/mL, 37° C. How it is done: Solubility was determined in water and 0.1N HCl (aq). Test compounds were incubated at 1 mg/mL for 24 hrs at 37° C. on a shaking platform (500 rpm). Samples were taken at 1, 4 and 24 hrs and centrifuged at 15,000 g for 10 min. Test compound concentration in the supernatant was determined by LCMS against a standard curve.

T1 sequence (P03952 391-638): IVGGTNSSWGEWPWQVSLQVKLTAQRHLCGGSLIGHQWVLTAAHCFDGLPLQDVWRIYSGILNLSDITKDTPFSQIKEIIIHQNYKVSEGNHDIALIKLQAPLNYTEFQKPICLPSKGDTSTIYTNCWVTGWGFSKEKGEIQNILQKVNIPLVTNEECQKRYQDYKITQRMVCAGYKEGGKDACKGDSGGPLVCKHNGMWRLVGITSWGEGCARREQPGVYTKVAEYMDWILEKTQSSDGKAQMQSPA
T1 sequence (P03952 20-390): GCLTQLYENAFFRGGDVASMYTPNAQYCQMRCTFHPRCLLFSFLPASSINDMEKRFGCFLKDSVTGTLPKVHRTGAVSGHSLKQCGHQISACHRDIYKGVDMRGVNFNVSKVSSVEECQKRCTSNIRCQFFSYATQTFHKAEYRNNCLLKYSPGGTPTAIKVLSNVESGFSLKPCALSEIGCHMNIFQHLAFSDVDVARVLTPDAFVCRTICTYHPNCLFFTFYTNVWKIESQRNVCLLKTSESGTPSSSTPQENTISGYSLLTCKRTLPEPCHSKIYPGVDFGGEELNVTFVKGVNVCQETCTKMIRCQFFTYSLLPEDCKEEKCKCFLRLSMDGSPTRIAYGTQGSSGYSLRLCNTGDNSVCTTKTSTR
Sequence of Human Factor XIIa (P00748 373-615): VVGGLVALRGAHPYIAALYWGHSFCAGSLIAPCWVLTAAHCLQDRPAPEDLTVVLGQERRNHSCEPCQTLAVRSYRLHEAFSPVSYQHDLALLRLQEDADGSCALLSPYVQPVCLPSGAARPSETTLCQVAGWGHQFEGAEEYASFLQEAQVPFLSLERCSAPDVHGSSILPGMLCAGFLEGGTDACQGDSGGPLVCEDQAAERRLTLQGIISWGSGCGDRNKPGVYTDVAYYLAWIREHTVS

Turning to `COCc1nn(Cc2ccc(N3CCCC3)nc2)cc1C(=O)NCc1c(-n2cnnn2)ccc(OC)c1F` [Example 77, N-{[2-fluoro-3-methoxy-6-(1,2,3,4-tetrazol-1-yl)phenyl]methyl}-3-(methoxymethyl)-1-{[6-(pyrrolidin-1-yl)pyridin-3-yl]methyl}pyrazole-4-carboxamide], the IC50 is greater than 40000 nM at Human KLK1, greater than 40000 nM at Human Factor XIIa, 1.4 nM on Human plasma kallikrein [8] and 235 nM against Human FXIa. The fraction unbound at 5 h, 5 μM in data set [1] was less than 0.01; in [10], 0.03. The microsomal CLint at 5 μM in [2] is 82 µL/min/mg; in [6] it was 29 µL/min/mg. The “Predicted in vivo human Clp (% LBF)” value in data set [3] is reported as 3 % LBF. The same molecule displayed a Ki on Human plasma kallikrein [4] of 0.17 nM. Besides, the Alpha on Human plasma kallikrein [4] came to 4.2. Also, in data set [5], the Cmax was determined as 845 ng/mL. Further, the Tmax in data set [5] is 1.5 h. In data set [7], the Papp at 1 h, 50 μM was 28 ×10⁻⁶ cm/s. The “Predicted in vivo rat Clp (% LBF)” value in data set [9] is less than 2.0 % LBF. Also, the inhibition at 40 µM on Human FXIa (40 μM test compound) was found to be 100%.
On to `COCc1nn(Cc2ccc(Cn3cc(C)cn3)cc2)cc1C(=O)NCc1c(-n2cnnn2)ccc(OC)c1F` [Example 60, N-{[2-fluoro-3-methoxy-6-(1,2,3,4-tetrazol-1-yl)phenyl]methyl}-3-(methoxymethyl)-1-({4-[(4-methylpyrazol-1-yl)methyl]phenyl}methyl)pyrazole-4-carboxamide], for which the IC50 against Human KLK1 is greater than 40000 nM; at Human Factor XIIa, greater than 40000 nM; at Human plasma kallikrein [8], 0.9 nM; on Human FXIa it was 4700 nM. In addition, the fraction unbound at 5 h, 5 μM is 0.03 in data set [1] and 0.09 in data set [10]. Also, the microsomal CLint at 5 μM was found to be 114 µL/min/mg in data set [2] and 90 µL/min/mg in data set [6]. The “Predicted in vivo human Clp (% LBF)” value in data set [3] is recorded as 35 % LBF. This molecule came in with a Ki on Human plasma kallikrein [4] of 0.3 nM. The Alpha at Human plasma kallikrein [4] was 1.6. The Papp at 1 h, 50 μM in data set [7] was 25 ×10⁻⁶ cm/s. For the same molecule, in data set [9], the “Predicted in vivo rat Clp (% LBF)” value is given as 12 % LBF. Moreover, the inhibition at 40 µM on Human FXIa (40 μM test compound) worked out at 90%.
Turning to `COCc1nn(Cc2ccc(Cn3ccccc3=O)cc2)cc1C(=O)NCc1c(F)cccc1-n1cnnn1` [Reference Example H, N-{[2-Fluoro-6-(1,2,3,4-tetrazol-1-yl)phenyl]methyl}-3-(methoxymethyl)-1-({4-[(2-oxopyridin-1-yl)methyl]phenyl}methyl)pyrazole-4-carboxamide, reference compound], the IC50 against Human KLK1 is greater than 40000 nM; on Human Factor XIIa, greater than 40000 nM; at Human plasma kallikrein [8], 1.1 nM; against Human FXIa, greater than 40000 nM. Moreover, the results for the fraction unbound at 5 h, 5 μM in data set [1] and in data set [10] were 0.13 and 0.16, respectively. Also, the microsomal CLint at 5 μM in data set [2] was 94 µL/min/mg; in data set [6], 25 µL/min/mg. Besides, in data set [3], the “Predicted in vivo human Clp (% LBF)” value is recorded as 14 % LBF. This molecule returned a Ki at Human plasma kallikrein [4] of 0.52 nM. Moreover, the Alpha at Human plasma kallikrein [4] turned out to be 108. In data set [7], this molecule registered a Papp at 1 h, 50 μM of 12 ×10⁻⁶ cm/s. For the same molecule, the “Predicted in vivo rat Clp (% LBF)” value in [9] is reported as 26 % LBF.
Regarding `COCc1nn(Cc2ccc(Cn3ccccc3=O)cc2)cc1C(=O)NCc1nccc(OC)c1C` [Example 22, N-[(4-methoxy-3-methylpyridin-2-yl)methyl]-3-(methoxymethyl)-1-({4-[(2-oxopyridin-1-yl)methyl]phenyl}methyl)pyrazole-4-carboxamide], the half-inhibitory concentration (IC50) against Human KLK1 is greater than 40000 nM; at Human Factor XIIa, greater than 40000 nM; at Human plasma kallikrein [8], 4.9 nM; against Human FXIa, greater than 40000 nM. The figures for the fraction unbound at 5 h, 5 μM in data set [1] and in data set [10] were less than 0.01 and 0.08, respectively. Moreover, the solubility in data set [11] (simulated gastric fluid, 0.1N HCl (aq), read-out: Solubility 0.1N HCl (aq)) was 900 µg/mL (≈ 1850 µM); in data set [11] (water, read-out: Solubility Water), 60 µg/mL (≈ 123 µM). Further, the microsomal CLint at 5 μM in data set [2] came out at 68 µL/min/mg. Also, the “Predicted in vivo human Clp (% LBF)” value in [3] was 7 % LBF. On Human plasma kallikrein [4], the affinity, expressed as Ki, was 1.9 nM. For the same molecule, the Alpha on Human plasma kallikrein [4] amounted to 29. In addition, the Cmax in data set [5] was found to be 1020 ng/mL. The Tmax in data set [5] was 1 h. The “Predicted in vivo rat Clp (% LBF)” value in data set [9] is listed as less than 1.6 % LBF. Besides, the inhibition at 40 µM on Human FXIa amounted to 5%.
